# Data from ChEMBL document CHEMBL2074362, “Lithocholic acid decreases expression of bile salt export pump through farnesoid X receptor antagonist activity” (J Biol Chem, 2002).
# Biological target: Bile salt export pump (Homo sapiens, UniProt O95342)
# Assay: TP_TRANSPORTER: Taq-Man PCR in vitro, primary hepatocytes
# Type: functional, cell-based, Hepatocyte
# Chain of Bile salt export pump (O95342 whole entry): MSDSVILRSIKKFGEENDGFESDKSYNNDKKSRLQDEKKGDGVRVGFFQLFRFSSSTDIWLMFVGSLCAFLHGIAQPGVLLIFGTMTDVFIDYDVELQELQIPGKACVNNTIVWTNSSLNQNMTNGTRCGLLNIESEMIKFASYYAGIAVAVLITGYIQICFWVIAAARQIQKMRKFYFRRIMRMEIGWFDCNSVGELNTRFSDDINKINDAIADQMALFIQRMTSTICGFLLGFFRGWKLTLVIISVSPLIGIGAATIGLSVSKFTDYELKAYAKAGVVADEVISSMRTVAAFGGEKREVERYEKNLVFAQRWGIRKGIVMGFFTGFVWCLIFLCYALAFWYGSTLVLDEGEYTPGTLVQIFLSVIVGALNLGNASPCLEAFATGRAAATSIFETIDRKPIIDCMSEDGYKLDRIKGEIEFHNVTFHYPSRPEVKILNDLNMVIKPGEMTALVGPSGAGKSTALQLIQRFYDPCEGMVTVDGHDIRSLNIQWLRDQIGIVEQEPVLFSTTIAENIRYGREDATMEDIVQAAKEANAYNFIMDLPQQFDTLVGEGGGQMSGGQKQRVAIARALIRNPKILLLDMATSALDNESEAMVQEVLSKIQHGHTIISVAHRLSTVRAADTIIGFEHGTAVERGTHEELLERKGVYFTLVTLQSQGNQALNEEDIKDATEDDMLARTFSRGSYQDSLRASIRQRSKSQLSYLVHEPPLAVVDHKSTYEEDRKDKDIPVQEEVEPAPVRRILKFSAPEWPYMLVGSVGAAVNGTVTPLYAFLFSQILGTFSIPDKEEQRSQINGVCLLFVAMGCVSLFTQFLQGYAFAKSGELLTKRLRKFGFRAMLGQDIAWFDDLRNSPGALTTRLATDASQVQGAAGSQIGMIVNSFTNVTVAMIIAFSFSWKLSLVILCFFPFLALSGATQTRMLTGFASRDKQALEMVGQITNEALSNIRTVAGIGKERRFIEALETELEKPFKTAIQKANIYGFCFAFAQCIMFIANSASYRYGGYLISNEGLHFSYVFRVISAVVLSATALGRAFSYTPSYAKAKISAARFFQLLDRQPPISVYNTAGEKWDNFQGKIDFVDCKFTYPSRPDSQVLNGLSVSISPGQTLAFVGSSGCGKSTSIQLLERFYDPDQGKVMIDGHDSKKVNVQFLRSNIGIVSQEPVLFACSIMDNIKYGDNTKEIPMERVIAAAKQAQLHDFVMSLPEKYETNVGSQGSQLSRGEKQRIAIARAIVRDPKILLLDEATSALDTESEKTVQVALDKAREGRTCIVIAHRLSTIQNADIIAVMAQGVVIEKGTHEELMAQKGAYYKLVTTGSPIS
smiles,measurement,value
CC(C)c1onc(-c2c(Cl)cccc2Cl)c1COc1ccc(/C=C/c2cccc(C(=O)O)c2)c(Cl)c1,Activity,inducer [+]
